According to patent US5019384A, “Immunonodulating compositions and their use” (Massachusetts Institute of Technology, priority 1989, dated 1991):
“Also recorded” adds a separate entry of the source. Read-outs that look alike come from different tables or passages of the source.

Assays:
[1] = biological target: T1, I-A^k (Mus musculus, UniProt P01910+P06343); assay: Gel filtration binding of 125I-labeled peptide to purified Ia (I-A^k); conditions: I-A^k; 125I-labeled peptide, 48 hours at room temperature, no inhibitor
T1 construct: endogenous in cells
T1 sequence (P01910 24-256): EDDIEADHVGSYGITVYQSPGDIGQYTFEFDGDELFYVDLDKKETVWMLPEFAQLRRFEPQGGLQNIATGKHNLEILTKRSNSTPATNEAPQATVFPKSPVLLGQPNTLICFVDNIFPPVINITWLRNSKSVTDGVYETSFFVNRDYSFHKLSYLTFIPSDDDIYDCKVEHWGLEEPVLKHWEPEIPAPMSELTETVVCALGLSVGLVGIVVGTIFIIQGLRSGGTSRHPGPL
T1 sequence (P06343 28-263): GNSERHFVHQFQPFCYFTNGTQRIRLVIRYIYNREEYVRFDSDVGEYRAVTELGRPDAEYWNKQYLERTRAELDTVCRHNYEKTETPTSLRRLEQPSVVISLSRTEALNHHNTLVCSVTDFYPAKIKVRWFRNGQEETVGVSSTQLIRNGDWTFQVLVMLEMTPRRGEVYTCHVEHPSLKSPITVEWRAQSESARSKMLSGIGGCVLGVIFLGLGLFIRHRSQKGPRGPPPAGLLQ
Excerpt: (§1) The peptide P12-26 was modified by the addition of a tyrosine residue to the N-terminus to serve as an acceptor for the ^125 I.
(§2) Ia-molecules were purifed from Nonidet P-40 (NP-40) lysates of A20 (H2^d) or AKTB-1b (H2^k) cells by affinity chromatography using the following monoclonal antibodies: MK-D6 (I-A^d -specific), 10-3-6 (I-A^k -specific) specific) or 14-4-4 (I-E^d/k -specific) coupled to Sepharose 4B beads (Pharmacia Fine Chemicals, Sweden).
(§3) A gel filtration assay was used for determining the degree of association between immunogenic peptides and Ia. The assay is described in: Buus, S. et al., Proceeding of the National Academy of Sciences, U.S.A. (1986) 83:3968, the teaching of which is incorporated herein by reference. Briefly, 40 μmole of purified Ia in 1 percent NP-40/PBS was mixed with 0.2 μmole of ^125 I-labeled peptide (approximately 200,000 cpm for each experiment) and incubated for 48 hours at room temperature to allow for formation of the Ia-peptide complex. The Ia-peptide complexes were separated from free peptide by gel filtration and the percentage of peptide bound to Ia was calculated as the ratio of the ^125 I-labeled peptide in the void volume to the total ^125 I-labeled peptide recovered.

[2] = system: T-cell hybridoma 7B7.3; assay: Activation of T-cell hybridoma 7B7.3 measured by IL-2 secretion; format: cell-based, Balb/c mouse; conditions: for Inhibition of P15-26-dependent 7B7.3 activation: P15-26 as activator, I-A^d context, IL-2 release; for Stimulation of 7B7.3: in the context of I-A^d
Description: (§4) T-cell hybridomas were obtained as described in Guillet et al., Science (1985) 235:865-870: and Lechler et al., J. Exp. Med. (1986) 163:678-696 (particularly references cited therein). The procedure for determining inhibition or activation is described in Guillet et al., supra.
(§5) The activation of T-cell hybridomas was measured by their ability to secrete IL-2 (T-cell hybridomas (5×10^4) that were incubated with 5×10^4 antigen-presenting cells in wells of a 96-well tissue Costar plate (no. 3596) in 200 μl RPMI complete medium containing the appropriate antigen concentrations). After 24 hrs of culture, supernatant (50 μl) was removed and then assayed for IL-2 content by its ability to maintain the growth of the IL-2 Dependent CTL-L cells: 1 μCi of ^3 H tritiated thymidine was added per well. Six hours later the cells were harvested by an automatic cell harvester (Skartron Inc., Sterling, Va.) and thymidine incorporation measured by scintillation counting.
The activity of T-cell hybridoma 7B7.3 was measured in the presence of various concentrations of P15-26, either in RPMI 1640 with 10 percent fetal calf serum alone or in the presence of P12-24 20 μM or P12-24 60 μM. A20 B-cell lymphomas (5×10^4 cells/well) were used as antigen presenting cells. After 24 hrs of culture, supernatant (50 μl) was harvested and then assayed for IL-2 concentration by following incorporation of ^3 H thymidine into the IL-2 dependent CTL-L cell line (10^4 cells/well). The indicated values in FIG. 2 represent the arithmetic mean of triplicate samples.
The following work was carried out to examine the competitive ability of peptides derived from Staphylococcus nuclease (Nase), residues 61-80 (P61-80) and from ovalbumin (Ova), residues 324-336 (P324-336) to inhibit P15-26-dependent activation of the hybridoma 7B7.3. Each of these peptides has been shown in their respective cases to be I-A^d -restricted and to be immunodominant for their respective antigens. Finnegan, A. et al. Journal of Experimental Medicine (1986) 164:897-910: Shimonkevitz, R. et al., Journal of Immunology (1984). 5×10^4 TA3 cells were added to each well. Various concentrations of P15-26 were added with either medium (RPMI 1640 with 10 percent fetal calf serum) alone or 30 μM or Ova (P324-36) of 60 μM of Nase ([…]). A20 B-cell lymphoma (5×10^4 cells/well) was used as antigen presenting cells. 7B7.3 T-cell hybridomas (5×10^4) were then added and cultured for 24 hrs. The level of T-cell stimulation was assayed by determining the IL-2 concentration as indicated in Example II. […] The degree of inhibition is […] upon the ratio of activator to inhibitor in each case.

[3] = system: T-cell hybridoma 8I; assay: Activation of T-cell hybridoma 8I measured by IL-2 secretion; format: cell-based, A/J strain; conditions: for Stimulation of 8I: in the context of I-E^k
Description: as §4, §5
8I (I-E^k -restricted) T-cell hybridomas and TA3 B presenting cells (5×10^4) were cocultured with various concentration of P15-26 and either medium alone or 60 μM of Ova (P324-336) or 60 μM Nase (P61-80) as described above. […] In addition, no other peptides representative of the remainder of the Nase sequence were able to inhibit 7B7.3 activation.

[4] = system: T-cell hybridoma DO-11.10; format: cell-based
[5] = biological target: T2, I-A^d (Mus musculus, UniProt P01921+P04228); assay: Gel filtration binding of 125I-labeled peptide to purified Ia (I-A^d); conditions: I-A^d; 125I-labeled peptide, 48 hours at room temperature, no inhibitor
T2 construct: endogenous in cells
T2 sequence (P04228 24-256): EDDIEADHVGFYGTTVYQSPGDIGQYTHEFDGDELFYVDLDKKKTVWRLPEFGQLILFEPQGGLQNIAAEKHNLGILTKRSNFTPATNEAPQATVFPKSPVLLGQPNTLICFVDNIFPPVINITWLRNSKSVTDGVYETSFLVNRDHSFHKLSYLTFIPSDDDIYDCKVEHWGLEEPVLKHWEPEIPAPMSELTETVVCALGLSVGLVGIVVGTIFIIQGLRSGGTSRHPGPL
T2 sequence (P01921 28-265): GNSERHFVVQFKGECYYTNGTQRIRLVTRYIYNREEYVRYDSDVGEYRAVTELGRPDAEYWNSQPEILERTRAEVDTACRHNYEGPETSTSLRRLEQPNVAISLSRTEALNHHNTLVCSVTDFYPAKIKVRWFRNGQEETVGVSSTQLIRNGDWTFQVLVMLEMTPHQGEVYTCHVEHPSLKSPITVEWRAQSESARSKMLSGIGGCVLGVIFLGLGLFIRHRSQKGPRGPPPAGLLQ
Excerpt: as §1, §2, §3

| Substance | Inhibition of P15-26-dependent 7B7.3 activation [2] | Stimulation of DO-11.10 [4] | Stimulation of 7B7.3 [2] | Stimulation of 8I [3] | other results |
| --- | --- | --- | --- | --- | --- |
| Lysozyme (Hen) (P46-61): lysozyme-derived peptide restricted by I-A^k [reference compound] | – | – | – | – | Percent of Peptide Bound [1]: 21.5% |
| Ova (P324-336): peptide from ovalbumin (Ova), residues 324-336, truncated analog of P323-339 (ISQAVHAAHAEIN; UniProt P01012 324-336, looked up, fragment) [reference compound] | inhibit 7B7.3 activation in a dose-dependent manner | responds less well | – | – | Effect on 8I activation ([3]; TA3 presenting cells, P15-26 stimulator, competitor peptide 60 μM): without effect |
| P12-24: homologous peptide which contains residues 12-24 of cI | inhibited activation by P15-26 in a dose-dependent manner; also recorded: inhibition of P15-26-dependent7B7.3 activation was observed; also recorded: inhibit activation by P15-26 in a dose dependent manner | – | Neither 7B7.3 nor 8I can be stimulated; also recorded: Neither T-cell can be stimulated | Neither 7B7.3 nor 8I can be stimulated; also recorded: Neither T-cell can be stimulated | Effect on 8I activation (IL-2 response) ([3]; I-E^k-restricted hybridoma, P12-24 as competitor): no statistically significant effect; also recorded: had no effect |
| P15-26: peptide which contains amino acid residues 15-26 of cI | – | – | is stimulated; also recorded: can be stimulated | recognizes the same peptide | EC50 ([2]; 7B7.3 co-cultured with P15-26 and P12-24 at 20 μM, read-out: 50 percent stimulation point of the P15-26 antigen dose response curve): 29.8 ± 2.8 µM; EC50 ([2]; 7B7.3 co-cultured with P15-26 and P12-24 at 60 μM, read-out: 50 percent stimulation point of the P15-26 antigen dose response curve): 70.3 µM; EC50 ([2]; P15-26 cultured with 7B7.3 alone, A20 antigen presenting cells, 24 hrs, IL-2, read-out: 50% stimulation point of the P15-26 antigen dose response curve): 20.7 ± 1.2 µM |
| P323-339: peptide P323-339 derived from ovalbumin (KISQAVHAAHAEINEAG; UniProt P01012 323-339, looked up, fragment) [reference compound] | – | responds to | – | – | Percent of Peptide Bound [5]: 10.6% |
